Measured values as given in article PMC11204923, “Marine Cytotoxin Santacruzamate A Derivatives as Potent HDAC1-3 Inhibitors and Their Synergistic Anti-Leukemia Effects with Venetoclax” (Marine Drugs, 2024).

Tested on: MV4-11 cells
Assay: Microdilution checkerboard assay, 25c combined with Venetoclax
Assay type: cell-based
Conditions: Homo sapiens, 72 h, read-out: Inhibition Rate (%)
Experimental: The inhibition effect of 25c combined with Venetoclax on the proliferation of MV4-11 cells was determined by microdilution checkerboard assay. CompuSyn software was used to calculate the combined action index of the two compounds, and the cell inhibition rates of the two compounds acting alone and the combined action were input to calculate the combination index (CI) to evaluate the synergistic effect of the drugs. A CI value less than 1 indicates a synergistic effect, a CI value equal to 1 indicates an additive effect and a CI value greater than 1 indicates an antagonistic effect.

With `CCCNNC(=O)C=Cc1ccc(CNCCc2ccccc2)cc1` [Compound 25c, 3-(4-((Phenethylamino)methyl)phenyl)-N′-propylacrylohydrazide] the inhibition at 0.13 µM (25c 0.13 μM alone) was 15.8%, the inhibition at 0.19 µM (25c 0.19 μM alone) was 33.9% and the inhibition at 0.28 µM (25c 0.28 μM alone) was 69.8%.
